Where two headings read alike, the source gives them in different places.
Legend:
Experiment in all cases: Glasshouse assay for herbicidal activity (pre- and post-emergence), percentage phytotoxicity
Type in all cases: in vivo
[1] = test system: Alopecurus myosuroides (ALOMY); settings: Alopecurus myosuroides
Procedure, shortened: (§1)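 Sow seed in standard soil in pots; apply test herbicide after 1 day (PRE) or about 12 days (POST). Grow on in the glasshouse, watering twice daily, cool-season species at 20/16 °C and warm-season at 24/18 °C. Score visible damage (0–100%) at 20 or 15 DAA respectively.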

Avena fatua (AVEFA) = settings: Avena fatua
Procedure, shortened: as §1

[2] = test system: Echinochloa crus-galli (ECHCG); settings: Echinochloa crus-galli
Procedure, shortened: as §1

Lolium perenne (LOLPE) = settings: Lolium perenne
Procedure, shortened: as §1

[3] = post-emergence, 360 h, Rate 250 g/ha, post-emergence, visual assessment 15 DAA, 100%=total damage, 0%=no damage, read-out: Post-emergence herbicidal activity (percentage phytotoxicity) ALOMY POST
[4] = pre-emergence, 480 h, Rate 250 g/ha, pre-emergence, visual assessment 20 DAA, 100%=total damage, 0%=no damage, read-out: Pre-emergence herbicidal activity (percentage phytotoxicity) ALOMY PRE
[5] = post-emergence, 360 h, Rate 250 g/ha, post-emergence, visual assessment 15 DAA, 100%=total damage, 0%=no damage, read-out: Post-emergence herbicidal activity (percentage phytotoxicity) AVEFA POST
[6] = pre-emergence, 480 h, Rate 250 g/ha, pre-emergence, visual assessment 20 DAA, 100%=total damage, 0%=no damage, read-out: Pre-emergence herbicidal activity (percentage phytotoxicity) AVEFA PRE
[7] = post-emergence, 360 h, Rate 250 g/ha, post-emergence, visual assessment 15 DAA, 100%=total damage, 0%=no damage, read-out: Post-emergence herbicidal activity (percentage phytotoxicity) ECHCG POST
[8] = pre-emergence, 480 h, Rate 250 g/ha, pre-emergence, visual assessment 20 DAA, 100%=total damage, 0%=no damage, read-out: Pre-emergence herbicidal activity (percentage phytotoxicity) ECHCG PRE
[9] = post-emergence, 360 h, Rate 250 g/ha, post-emergence, visual assessment 15 DAA, 100%=total damage, 0%=no damage, read-out: Post-emergence herbicidal activity (percentage phytotoxicity) LOLPE POST
[10] = pre-emergence, 480 h, Rate 250 g/ha, pre-emergence, visual assessment 20 DAA, 100%=total damage, 0%=no damage, read-out: Pre-emergence herbicidal activity (percentage phytotoxicity) LOLPE PRE
[11] = post-emergence, 360 h, POST-emergence, rate 250 g/ha, visual score 15 DAA (100%=total damage, 0%=no damage), read-out: Post-emergence herbicidal activity (percentage phytotoxicity) ALOMY POST
[12] = pre-emergence, 480 h, PRE-emergence, rate 250 g/ha, visual score 20 DAA (100%=total damage, 0%=no damage), read-out: Pre-emergence herbicidal activity (percentage phytotoxicity) ALOMY PRE
[13] = post-emergence, 360 h, POST-emergence, rate 250 g/ha, visual score 15 DAA (100%=total damage, 0%=no damage), read-out: Post-emergence herbicidal activity (percentage phytotoxicity) AVEFA POST
[14] = pre-emergence, 480 h, PRE-emergence, rate 250 g/ha, visual score 20 DAA (100%=total damage, 0%=no damage), read-out: Pre-emergence herbicidal activity (percentage phytotoxicity) AVEFA PRE
[15] = post-emergence, 360 h, POST-emergence, rate 250 g/ha, visual score 15 DAA (100%=total damage, 0%=no damage), read-out: Post-emergence herbicidal activity (percentage phytotoxicity) ECHCG POST
[16] = pre-emergence, 480 h, PRE-emergence, rate 250 g/ha, visual score 20 DAA (100%=total damage, 0%=no damage), read-out: Pre-emergence herbicidal activity (percentage phytotoxicity) ECHCG PRE
[17] = post-emergence, 360 h, POST-emergence, rate 250 g/ha, visual score 15 DAA (100%=total damage, 0%=no damage), read-out: Post-emergence herbicidal activity (percentage phytotoxicity) LOLPE POST
[18] = pre-emergence, 480 h, PRE-emergence, rate 250 g/ha, visual score 20 DAA (100%=total damage, 0%=no damage), read-out: Pre-emergence herbicidal activity (percentage phytotoxicity) LOLPE PRE
[19] = post-emergence, 360 h, 250 g/ha, post-emergence, 15 DAA, visual assessment (100%=total damage, 0%=no damage), read-out: Post-emergence herbicidal activity (percentage phytotoxicity) ALOMY POST
[20] = pre-emergence, 480 h, 250 g/ha, pre-emergence, 20 DAA, visual assessment (100%=total damage, 0%=no damage), read-out: Pre-emergence herbicidal activity (percentage phytotoxicity) ALOMY PRE
[21] = post-emergence, 360 h, 250 g/ha, post-emergence, 15 DAA, visual assessment (100%=total damage, 0%=no damage), read-out: Post-emergence herbicidal activity (percentage phytotoxicity) AVEFA POST
[22] = pre-emergence, 480 h, 250 g/ha, pre-emergence, 20 DAA, visual assessment (100%=total damage, 0%=no damage), read-out: Pre-emergence herbicidal activity (percentage phytotoxicity) AVEFA PRE
[23] = post-emergence, 360 h, 250 g/ha, post-emergence, 15 DAA, visual assessment (100%=total damage, 0%=no damage), read-out: Post-emergence herbicidal activity (percentage phytotoxicity) ECHCG POST
[24] = pre-emergence, 480 h, 250 g/ha, pre-emergence, 20 DAA, visual assessment (100%=total damage, 0%=no damage), read-out: Pre-emergence herbicidal activity (percentage phytotoxicity) ECHCG PRE
[25] = post-emergence, 360 h, 250 g/ha, post-emergence, 15 DAA, visual assessment (100%=total damage, 0%=no damage), read-out: Post-emergence herbicidal activity (percentage phytotoxicity) LOLPE POST
[26] = pre-emergence, 480 h, 250 g/ha, pre-emergence, 20 DAA, visual assessment (100%=total damage, 0%=no damage), read-out: Pre-emergence herbicidal activity (percentage phytotoxicity) LOLPE PRE

Structure (SMILES): Cc1cc(-c2ccc(F)cn2)cc(C)c1C1C(=O)CC(CC(=O)NCc2cccs2)C1=O (centres unmarked) [Compound B397]
- pest or weed control at 250 g/ha [1, 3]: 90%
- pest or weed control at 250 g/ha [1, 4]: 70%
- pest or weed control at 250 g/ha (Avena fatua (AVEFA); [5]): 90%
- pest or weed control at 250 g/ha (Avena fatua (AVEFA); [6]): 80%
- pest or weed control at 250 g/ha [2, 7]: 100%
- pest or weed control at 250 g/ha [2, 8]: 100%
- pest or weed control at 250 g/ha (Lolium perenne (LOLPE); [9]): 90%
- pest or weed control at 250 g/ha (Lolium perenne (LOLPE); [10]): 70%

Structure (SMILES): C#CC(C)(C)NC(=O)CC1CC(=O)C(c2c(C)cc(-n3cc(Cl)cn3)cc2C)C1=O (centres unmarked) [Compound B313]
- pest or weed control at 250 g/ha [1, 11]: 90%
- pest or weed control at 250 g/ha [1, 12]: 90%
- pest or weed control at 250 g/ha (Avena fatua (AVEFA); [13]): 70%
- pest or weed control at 250 g/ha (Avena fatua (AVEFA); [14]): 80%
- pest or weed control at 250 g/ha [2, 15]: 90%
- pest or weed control at 250 g/ha [2, 16]: 100%
- pest or weed control at 250 g/ha (Lolium perenne (LOLPE); [17]): 70%
- pest or weed control at 250 g/ha (Lolium perenne (LOLPE); [18]): 90%

Structure (SMILES): C#CCN(C)C(=O)CC1CC(=O)C(c2c(C)cc(-c3ccc(F)cn3)cc2C)C1=O (centres unmarked) [Compound B394]
- pest or weed control at 250 g/ha [1, 3]: 100%
- pest or weed control at 250 g/ha [1, 4]: 100%
- pest or weed control at 250 g/ha (Avena fatua (AVEFA); [5]): 100%
- pest or weed control at 250 g/ha (Avena fatua (AVEFA); [6]): 100%
- pest or weed control at 250 g/ha [2, 7]: 100%
- pest or weed control at 250 g/ha [2, 8]: 100%
- pest or weed control at 250 g/ha (Lolium perenne (LOLPE); [9]): 90%
- pest or weed control at 250 g/ha (Lolium perenne (LOLPE); [10]): 100%

Structure (SMILES): C/C=C/c1cc(C)c(C2C(=O)CC(CC(=O)NCc3ccc(C#N)cc3)C2=O)c(CC)c1 (centres unmarked) [Compound B191]
- pest or weed control at 250 g/ha [1, 11]: 50%
- pest or weed control at 250 g/ha [1, 12]: 60%
- pest or weed control at 250 g/ha (Avena fatua (AVEFA); [13]): 90%
- pest or weed control at 250 g/ha (Avena fatua (AVEFA); [14]): 40%
- pest or weed control at 250 g/ha [2, 15]: 100%
- pest or weed control at 250 g/ha [2, 16]: 80%
- pest or weed control at 250 g/ha (Lolium perenne (LOLPE); [17]): 90%
- pest or weed control at 250 g/ha (Lolium perenne (LOLPE); [18]): 70%

Structure (SMILES): Cc1cc(C)c(C2C(=O)CC(CC(=O)NCC(F)(F)F)C2=O)c(C)c1 (centres unmarked) [Compound B59]
- pest or weed control at 250 g/ha [1, 19]: 70%
- pest or weed control at 250 g/ha [1, 20]: 70%
- pest or weed control at 250 g/ha (Avena fatua (AVEFA); [21]): 70%
- pest or weed control at 250 g/ha (Avena fatua (AVEFA); [22]): 30%
- pest or weed control at 250 g/ha [2, 23]: 80%
- pest or weed control at 250 g/ha [2, 24]: 90%
- pest or weed control at 250 g/ha (Lolium perenne (LOLPE); [25]): 80%
- pest or weed control at 250 g/ha (Lolium perenne (LOLPE); [26]): 90%

Structure (SMILES): Cc1cc(-c2ncc(F)cn2)cc(C)c1C1C(=O)CC(CC(=O)NC/C=C\Br)C1=O (centres unmarked) [Compound B326]
- pest or weed control at 250 g/ha [1, 11]: 100%
- pest or weed control at 250 g/ha [1, 12]: 100%
- pest or weed control at 250 g/ha (Avena fatua (AVEFA); [13]): 100%
- pest or weed control at 250 g/ha (Avena fatua (AVEFA); [14]): 80%
- pest or weed control at 250 g/ha [2, 15]: 100%
- pest or weed control at 250 g/ha [2, 16]: 100%
- pest or weed control at 250 g/ha (Lolium perenne (LOLPE); [17]): 100%
- pest or weed control at 250 g/ha (Lolium perenne (LOLPE); [18]): 100%

Structure (SMILES): Cc1cc(-c2ncc(Cl)cc2F)cc(C)c1C1C(=O)CC(CC(=O)NCC2CC2C(F)F)C1=O (centres unmarked) [Compound B143]
- pest or weed control at 250 g/ha [1, 19]: 100%
- pest or weed control at 250 g/ha [1, 20]: 90%
- pest or weed control at 250 g/ha (Avena fatua (AVEFA); [21]): 100%
- pest or weed control at 250 g/ha (Avena fatua (AVEFA); [22]): 90%
- pest or weed control at 250 g/ha [2, 23]: 100%
- pest or weed control at 250 g/ha [2, 24]: 100%
- pest or weed control at 250 g/ha (Lolium perenne (LOLPE); [25]): 100%
- pest or weed control at 250 g/ha (Lolium perenne (LOLPE); [26]): 100%
